# According to patent US20030106108A1, “Genetic transformation method for zoysiagrass” (priority 2001, published 2003):
# Assays:
# zoysiagrass type 1 calli = assay: Growth of type 1 calli on MS media with combinations of 2,4-D and BA; assay type: cell-based, Zoysia japonica Steud.; settings: for Callus fresh weight, Total / Callus fresh weight, Type 1 / Callus fresh weight, Type 2 / Callus fresh weight, Type 3 / Callus fresh weight, Type 4: BA 0 mg/l, 5 weeks, dark, 28° C., mean of ten calli
# Protocol: To investigate morphological changes occurring on type 1 calli subculturing, type 1 calli were transferred to a MS medium containing various hormonal combinations of 2,4-D (1, 2, 4, and 8 mg/liter) and BA (0, 0.01, and 0.1 mg/liter) in the dark. After five weeks of subculturing in the dark, four callus types were observed. Each callus type was weighed, and the weight ratios were calculated. Calli of types 2, 3, and 4 were also examined in an identical way as with type 1 callus.
# Ten mg of type 1 calli was grown on MS media with various combinations of 2,4-D and BA and 2 g/liter gelrite for 5 weeks in the dark at 28° C. Each value represents a mean calculated from ten calli. Callus morphologies were rated by; 1=whitish-yellow, compact and non-friable, 2=white, compact and friable, 3=yellow, compact and very friable, 4=translucent, soft and watery.
# Agrobacterial cell = assay: Agrobacterium elimination in shoot induction media; assay type: cell-based, Agrobacterium tumefaciens; settings: 125 mg/liter calbenicillin-containing media
# Protocol: The optimized conditions for the A. tumefaciens infection of zoysiagrass calli included the use of type 3 calli as donor, a co-cultivation period of 9 days, the exclusion of 2,4-D and CaCl2 from the media, and the use of 100 mg/l acetosyringone. After pGPTV-HB co-cultivation, calli were transferred to filter paper-laid MSCG media and cultured for 2-4 weeks in the dark. The calli were then transferred to filter paper-laid MSSI medium for shoot induction. Various concentrations (125, 250, and 500 mg/liter) of calbenicillin were added to the shoot induction medium. Induced shoots were subsequently transferred to the MSRS medium for rooting and selection for 4 weeks. Five mg/liter bialaphos and 10 mg/liter hygromycin were used for selection of bialaphos- and hygromycin-resistant plantlets. The rooting plants on the selection medium were transferred to the MSPG medium without antibiotics and bialaphos and further grown. The fully grown plants were then transferred to a pot containing soil and grown in an environmentally controlled growth chamber set at 30° C., 80% relative humidity and 18-hour photoperiod with 30 μmolm^−2s^−1 irradiance provided by cool white fluorescent tubes. When the roots developed enough, pots were transferred to green house. […]
# zoysiagrass calli = assay type: cell-based, Zoysia japonica Steud.
# Protocol: Acetosyringone was prepared by dissolving an appropriate amount of powder in dimethyl sulfoxide at a concentration of 100 mg/ml and stored at 4° C. in the dark. It was added to the sterile medium to an appropriate final concentration whenever required. The calli proliferated on the MSCG4 medium were immersed in the Agrobacterial cell suspension for 1 min. After dehydration on sterile filter paper, the calli were cultivated on a co-cultivation medium (MSAS) with 4 mg/liter 2,4-D at 26±1° C. in the dark for 15 days. After co-cultivation, the calli were thoroughly washed by vortexing in sterile double-distilled water supplemented with a surfactant (0.02% pluronic F68) until the washing solution becomes transparent and finally washed in sterile double-distilled water containing 1000 mg/liter calbenicillin and 0.02% surfactant. After washing, an half of the calli were used for GUS activity assay by the method described by Schenk et al. (1998).
# Several factors were tested to optimize transformation efficiency. (1) For comparison of different callus types on invasiveness, types 1, 2 and 3 calli were co-cultivated on 2,4-D-free MSAS media for 6 days; (2) For comparison of co-cultivation periods, calli were co-cultivated for 3, 6, 9, 12, 15, 18, 21, 24 and 27 days; (3) For examination of media components, different amounts of 2,4-D (0, 1, 2, 4, and 8 mg/liter), CaCl2 (0, 11, 110, 220, and 440 mg/liter), and acetosyringone (0, 10, 50, 100, and 200 mg/liter) were added to the MSAS media.
smiles,measurement,setting,value
c1ccc(CNc2ncnc3[nH]cnc23)cc1 [BA],Reduction of incidence rate of non-regenerable type 4 calli,"zoysiagrass type 1 calli; addition of 0.01 mg/liter BA in combination with 2,4-D",1.8-3.4 times
CC1(C)S[C@@H]2[C@H](NC(=O)C(C(=O)O)c3ccccc3)C(=O)N2[C@H]1C(=O)O (stereo partly shown) [calbenicillin],Agrobacterial cell contamination of media,Agrobacterial cell,sometimes observed
[Ca+2].[Cl-].[Cl-] [CaCl2],"Number of GUS blue spots per 1 g fresh weight calli, effect of CaCl2","zoysiagrass calli; CaCl2 0, 11, 110, 220, 440 mg/liter in co-cultivation medium",decreased as the CaCl2 concentration increased
"O=C(O)COc1ccc(Cl)cc1Cl [2,4-D, 2,4-dichlorophenoxyacetic acid]","Number of GUS blue spots per 1 g fresh weight of calli, effect of 2,4-D","zoysiagrass calli; 2,4-D 0, 1, 2, 4, 8 mg/liter in co-cultivation medium, 9 days of co-cultivation","decreased as the 2,4-D concentration increased"
same,"Callus fresh weight, Total","zoysiagrass type 1 calli; 2,4-D 1 mg/l",81.5 mg
same,"Callus fresh weight, Type 1","zoysiagrass type 1 calli; 2,4-D 1 mg/l",45.8 mg
same,"Callus fresh weight, Type 2","zoysiagrass type 1 calli; 2,4-D 1 mg/l",22.3 mg
same,"Callus fresh weight, Type 3","zoysiagrass type 1 calli; 2,4-D 1 mg/l",0 mg
same,"Callus fresh weight, Type 4","zoysiagrass type 1 calli; 2,4-D 1 mg/l",13.4 mg
same,"Callus fresh weight, Total","zoysiagrass type 1 calli; 2,4-D 2 mg/l",37.0 mg
same,"Callus fresh weight, Type 1","zoysiagrass type 1 calli; 2,4-D 2 mg/l",18.8 mg
same,"Callus fresh weight, Type 2","zoysiagrass type 1 calli; 2,4-D 2 mg/l",2.3 mg
same,"Callus fresh weight, Type 3","zoysiagrass type 1 calli; 2,4-D 2 mg/l",1.5 mg
same,"Callus fresh weight, Type 4","zoysiagrass type 1 calli; 2,4-D 2 mg/l",14.5 mg
same,"Callus fresh weight, Total","zoysiagrass type 1 calli; 2,4-D 4 mg/l",29.6 mg
same,"Callus fresh weight, Type 1","zoysiagrass type 1 calli; 2,4-D 4 mg/l",11.4 mg
same,"Callus fresh weight, Type 2","zoysiagrass type 1 calli; 2,4-D 4 mg/l",0 mg
same,"Callus fresh weight, Type 3","zoysiagrass type 1 calli; 2,4-D 4 mg/l",0.9 mg
same,"Callus fresh weight, Type 4","zoysiagrass type 1 calli; 2,4-D 4 mg/l",17.2 mg
COc1cc(C(C)=O)cc(OC)c1O [acetosyringone],Increase of the number of blue spots (factor),zoysiagrass calli; 50 mg/liter acetosyringone in co-cultivation medium vs acetosyringone-free medium,9
same,Transformation efficiency,zoysiagrass calli; 30˜70 mg/liter acetosyringone during co-cultivation,greatly enhanced
same,Effect on the transformation,zoysiagrass calli; higher than 100 mg/liter acetosyringone,negative effect
